Holding throughout (format): functional, cell-based
For data set [1], the target named is T1, Solute carrier family 15 member 1 (Homo sapiens) (UniProt P46059).
T1 sequence (whole entry): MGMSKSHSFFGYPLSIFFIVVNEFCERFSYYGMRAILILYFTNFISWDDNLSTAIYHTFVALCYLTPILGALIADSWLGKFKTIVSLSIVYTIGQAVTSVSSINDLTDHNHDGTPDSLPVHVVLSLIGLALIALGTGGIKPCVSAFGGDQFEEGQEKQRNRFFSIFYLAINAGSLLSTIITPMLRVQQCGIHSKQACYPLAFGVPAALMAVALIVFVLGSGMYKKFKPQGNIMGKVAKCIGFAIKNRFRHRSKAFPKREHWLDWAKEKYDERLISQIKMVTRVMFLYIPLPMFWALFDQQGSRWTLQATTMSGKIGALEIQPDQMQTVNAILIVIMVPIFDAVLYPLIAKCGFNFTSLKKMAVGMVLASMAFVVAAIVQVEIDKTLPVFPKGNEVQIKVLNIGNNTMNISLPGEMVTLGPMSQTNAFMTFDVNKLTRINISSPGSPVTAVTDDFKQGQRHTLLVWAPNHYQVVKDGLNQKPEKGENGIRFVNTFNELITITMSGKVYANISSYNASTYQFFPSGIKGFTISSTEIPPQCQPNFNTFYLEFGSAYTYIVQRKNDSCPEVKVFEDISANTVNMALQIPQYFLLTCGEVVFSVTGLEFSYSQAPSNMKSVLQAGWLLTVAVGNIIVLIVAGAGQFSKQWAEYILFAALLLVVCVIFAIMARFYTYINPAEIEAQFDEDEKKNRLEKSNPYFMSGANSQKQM
Nature of the data set: TP_TRANSPORTER: inhibition of VACV uptake (VAVC: 20 uM, Ampicillin: 10000 uM) in PEPT1-expressing CHO cells.

The target in data set [2] is T1, Solute carrier family 15 member 1 (Homo sapiens). Nature of the data set: TP_TRANSPORTER: inhibition of VACV uptake (VACV: 20 uM, Gly-Gly: 10000 uM) in PEPT1-expressing CHO cells.
The target is the same in data set [3]. Nature of the data set: TP_TRANSPORTER: inhibition of VACV uptake (VACV: 20 uM, Gly-Leu: 10000 uM) in PEPT1-expressing CHO cells.
Data set [4] has as its target T2, Solute carrier family 15 member 1 (Homo sapiens, UniProt P46059).
T2 sequence (P46059 whole entry): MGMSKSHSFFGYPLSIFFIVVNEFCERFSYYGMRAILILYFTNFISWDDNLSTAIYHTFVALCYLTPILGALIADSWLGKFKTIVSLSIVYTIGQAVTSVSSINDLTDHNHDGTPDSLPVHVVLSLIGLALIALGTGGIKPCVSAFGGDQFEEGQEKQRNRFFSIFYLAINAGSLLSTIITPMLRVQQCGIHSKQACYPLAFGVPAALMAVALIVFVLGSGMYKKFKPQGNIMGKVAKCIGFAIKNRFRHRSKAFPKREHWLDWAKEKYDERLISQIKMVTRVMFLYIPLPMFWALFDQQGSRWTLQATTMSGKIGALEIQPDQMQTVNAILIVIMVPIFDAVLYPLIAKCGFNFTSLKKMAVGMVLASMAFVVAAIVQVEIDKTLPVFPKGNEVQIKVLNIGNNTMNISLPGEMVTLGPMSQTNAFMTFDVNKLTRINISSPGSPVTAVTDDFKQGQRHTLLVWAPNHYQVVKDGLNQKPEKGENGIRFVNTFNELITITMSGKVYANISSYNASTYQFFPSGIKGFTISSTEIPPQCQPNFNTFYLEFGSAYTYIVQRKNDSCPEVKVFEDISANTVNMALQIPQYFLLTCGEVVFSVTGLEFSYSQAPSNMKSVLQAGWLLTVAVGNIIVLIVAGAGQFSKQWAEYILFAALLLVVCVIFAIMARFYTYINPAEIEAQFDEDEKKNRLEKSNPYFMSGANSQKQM
Nature of the data set: TP_TRANSPORTER: inhibition of VACV uptake in PEPT1-expressing CHO cells.

Data set [5] addresses T1, Solute carrier family 15 member 1 (Homo sapiens). Nature of the data set: TP_TRANSPORTER: inhibition of VACV uptake (VACV: 20 uM, Leu-Leu: 10000 uM) in PEPT1-expressing CHO cells.
For data set [6] the target is unchanged. The data set is described as follows: TP_TRANSPORTER: inhibition of VACV uptake (VACV: 20 uM, Cephalexin: 10000 uM) in PEPT1-expressing CHO cells.
Substrate in data set [7]: CC(C)[C@H](N)C(=O)OCCOCn1cnc2c(=O)nc(N)[nH]c21
The data set is described as follows: (§1) TP_TRANSPORTER: uptake in PEPT1-expressing CHO cells.

Substrate in data set [8]: CN(CC(=O)O)C(=O)CN
The data set is described as §1.

Where a SMILES comes first, the peptide text is derived from it. [ ]: non-standard residue; d: D form. Sar = CNCC(=O)O

The term inhibition denotes how much of the control response was suppressed. As for `CC1(C)S[C@@H]2[C@H](NC(=O)[C@H](N)c3ccccc3)C(=O)N2[C@H]1C(=O)O`, in data set [1], the inhibition was 50%.
In the case of `NCC(=O)NCC(=O)O` (H-Gly-Gly-OH), the inhibition in data set [2] was above 80%.
In the case of `CC(C)C[C@H](NC(=O)CN)C(=O)O`, the inhibition in data set [3] is above 80%.
The term Ki denotes a dissociation constant, usually derived from enzyme kinetics or from competition with a known ligand. A low value points to tighter binding. The molecule `CC1=C(C(=O)O)N2C(=O)[C@@H](NC(=O)[C@H](N)c3ccc(O)cc3)[C@H]2SC1` [CEFADROXIL] gave a Ki in data set [4] of 9.1 mM. This lies in the millimolar range.
As for `CC(C)C[C@H](NC(=O)[C@@H](N)CC(C)C)C(=O)O`, the inhibition in data set [5] is above 80%.
As for `CC1=C(C(=O)O)N2C(=O)[C@@H](NC(=O)[C@H](N)c3ccccc3)[C@H]2SC1`, in data set [6], the inhibition was 50%.
Regarding `CN(CC(=O)O)C(=O)CN` [GLYCYLSARCOSINE] (H-Gly-[Sar]-OH), affinity in data set [4] was put at a Ki of 12.8 mM.

B1: Solute carrier family 15 member 1 (Homo sapiens), P46059 (protein)
chain: MGMSKSHSFFGYPLSIFFIVVNEFCERFSYYGMRAILILYFTNFISWDDNLSTAIYHTFVALCYLTPILGALIADSWLGKFKTIVSLSIVYTIGQAVTSVSSINDLTDHNHDGTPDSLPVHVVLSLIGLALIALGTGGIKPCVSAFGGDQFEEGQEKQRNRFFSIFYLAINAGSLLSTIITPMLRVQQCGIHSKQACYPLAFGVPAALMAVALIVFVLGSGMYKKFKPQGNIMGKVAKCIGFAIKNRFRHRSKAFPKREHWLDWAKEKYDERLISQIKMVTRVMFLYIPLPMFWALFDQQGSRWTLQATTMSGKIGALEIQPDQMQTVNAILIVIMVPIFDAVLYPLIAKCGFNFTSLKKMAVGMVLASMAFVVAAIVQVEIDKTLPVFPKGNEVQIKVLNIGNNTMNISLPGEMVTLGPMSQTNAFMTFDVNKLTRINISSPGSPVTAVTDDFKQGQRHTLLVWAPNHYQVVKDGLNQKPEKGENGIRFVNTFNELITITMSGKVYANISSYNASTYQFFPSGIKGFTISSTEIPPQCQPNFNTFYLEFGSAYTYIVQRKNDSCPEVKVFEDISANTVNMALQIPQYFLLTCGEVVFSVTGLEFSYSQAPSNMKSVLQAGWLLTVAVGNIIVLIVAGAGQFSKQWAEYILFAALLLVVCVIFAIMARFYTYINPAEIEAQFDEDEKKNRLEKSNPYFMSGANSQKQM
What is called Km is the substrate concentration at which the rate is half of its maximum. On to B1, for which the figures for the Km in data set [7] and in data set [8] were 1640 µM and 3130 µM, respectively.
